Earlier results in patent US20070190094A1, “PESTICIDAL COMPOSITIONS CONTAINING ISOPROPYL-CONTAINING COMPOUNDS AS PESTICIDALLY ACTIVE INGREDIENTS” (ECOSMART TECHNOLOGIES, INC., priority 2006, published 2007).

Columns and labels:
[1] = animal studies; treatments as low as
[2] = chronic toxicity studies; increased liver weights even at the lowest doses
[3] = tested on: hepatic microsomal oxidase enzymes; details: in vivo
[4] = U.S. Environmental Protection Agency classification

In the case of `CCCCOCCOCCOCc1cc2c(cc1CCC)OCO2` [PBO, piperonyl butoxide], the “treatment level at which hepatocellular carcinomas were shown” value [1] is listed as 1.2%, the “lowest dose at which increased liver weights were shown” value [2] is listed as 30 mg/kg/day and the “effect on hepatic microsomal oxidase enzymes” value [3] is listed as “inhibit hepatic microsomal oxidase enzymes”. The EPA carcinogen class [4] was “class C possible human carcinogen”.
